Source: patent US12357612B2, “Prophylactic or therapeutic agent for cancer” (TOHOKU UNIVERSITY, priority 2019, dated 2025)

Tests used:
[1] = system: colorectal cancer cell line HCT116; experiment: Cell migration test; type: cell-based, human; conditions: 50 μM, 48 hours, HCT116, 20% FBS as attractant; versus absence of compound; FIG. 4
Procedure: Cells of the human colorectal cancer cell line HCT116 (obtained from ATCC) were cultured and maintained in a DMEM (Dulbecco's Modified Eagle Medium) culture solution (manufactured by Sigma-Aldrich) containing 10% fetal bovine serum (FBS) (manufactured by Biowest) and 1% penicillin-streptomycin (manufactured by Thermo Fisher Science) under the conditions of 5% CO2/20% O2 and 37° C.
7.5×10^4 cells of the colorectal cancer cell line HCT116 were seeded in each well of the Corning Fluoroblok 24-Multiwell Insert Systems (pore size: 8.0 μm) (manufactured by Corning), and cultured for 48 hours in FBS-free DMEM culture solution or FBS-free DMEM culture solution containing 50 μM of the Present Compound #2. Note that a DMEM culture solution containing 20% FBS, which is an attractant, was added to the chamber at the bottom of the plate. The migrating cells that had passed through the membrane on the lower surface of the cell culture insert were stained using a Diff-Quik kit (manufactured by Sysmex), the membrane was air-dried, and then the number of cells was measured in three fields of view using a phase-contrast microscope.
Student's t-test was used for the comparison between two groups, and Dunnet's test or Tukey's test was used for the comparison between three groups. The survival rate (see FIG. 3) was evaluated by a log-rank test using the Kaplan-Meier survival curve. […]

[2] = system: model mice of colorectal cancer (AOM/DSS); experiment: Model mice of colorectal cancer (AOM/DSS), oral administration; type: in vivo, ICR mice; conditions: for colon length: shortening in placebo group versus control group, FIG. 1B; for tumor area in the colon / ratio of tumor area in the colon / number of tumors having a diameter of more than 2 mm: versus placebo group; for tumor area in the colon: FIG. 1A; for ratio of tumor area in the colon: FIG. 2A; for number of tumors having a diameter of more than 2 mm: FIG. 2B
Procedure: Model mice of colorectal cancer were prepared using azoxymethane (AOM; manufactured by Wako Pure Chemical Industries, Ltd.) and dextran sulfate sodium (DSS, manufactured by MP Biomedicals). Specifically, 5-week-old male ICR mice (produced by CLEA Japan) were first acclimated and bred for 1 week. At 6 weeks of age, the mice were randomly divided in a control group and 5 colorectal cancer groups (placebo group, Present Compound #1[1] group, Present Compound #1[10] group, Present Compound #2[1] group, and Present Compound #2[10] group), and 10 (mg/kg body weight) of AOM was intraperitoneally administered to the colorectal cancer groups. Seven days later, the mice were allowed to freely drink 2.5% (w/v) DSS for 1 week, and then tap water for 14 days. This administration of DSS was performed for […] to prepare model mice of colorectal cancer. When the above AOM was intraperitoneally administered (that is, at 6 weeks of age), physiological saline solutions containing 1 (mg/kg body weight/day) and 10 (mg/kg body weight/day) of the Present Compound #1 were orally administered for 70 consecutive days thereafter to the Present Compound #1(1) group and the Present Compound #1(10) group, respectively, physiological saline solutions containing 1 (mg/kg body weight/day) and 10 (mg/kg body weight/day) of the Present Compound #2 were orally administered for 70 consecutive days thereafter to the Present Compound #2(1) group and the Present Compound #2(10) group, respectively, and a physiological saline solution was orally administered for 70 consecutive days thereafter to the placebo group. In addition, to the control group, a physiological saline solution was orally administered at 6 weeks of age for 70 consecutive days thereafter. All mice were sacrificed and the colons were harvested immediately after the end of the third cycle. The colons were photographed in full length and the colon length (see FIG. 1B), as well as the tumor area in the colon (see FIG. 1A), the ratio of tumor area in the colon (see FIG. 2A), and the number of tumors having a diameter of more than 2 mm (see FIG. 2B) were measured. Note that, for the tumors, the elevated lesions that were thought to contain cancer were visually observed in the colon (large intestine), and the area of these elevated lesions (that is, the tumors) and the total colon area were calculated by NIH Image J version 1.51 (US National Institutes of Health, MD, http://imagej.nih.gov/ij/index.html). The ratio of tumor area in the colon was calculated based on the formula “(elevated lesion area/total colon area)×100”.
Student's t-test was used for the comparison between two groups, and Dunnet's test or Tukey's test was used for the comparison between three groups. The survival rate (see FIG. 3) was evaluated by a log-rank test using the Kaplan-Meier survival curve. JMP version 14 (manufactured by SAS Institute) was used for statistical analysis. For all test results, p-values less than 0.05 were considered statistically significant.

[3] = 1 mg/kg body weight/day orally for 70 consecutive days
[4] = 10 mg/kg body weight/day orally for 70 consecutive days

| Compound | cell migration level [1] | colon length [2, 3] | tumor area in the colon [2, 3] | colon length [2, 4] | tumor area in the colon [2, 4] | ratio of tumor area in the colon [2, 4] | number of tumors having a diameter of more than 2 mm [2, 4] | survival ([2]; 10 mg/kg body weight/day orally, 4 out of 8 mice died in the placebo group, FIG. 3) | ratio of tumor area in the colon [2, 3] | number of tumors having a diameter of more than 2 mm [2, 3] |
| --- | --- | --- | --- | --- | --- | --- | --- | --- | --- | --- |
| COc1cc(COc2ccc3[nH]cc(CC(=O)O)c3c2)cc(OC)c1 [Present Compound #2, 5-(3,5-dimethoxybenzyloxy)-3-indoleacetic acid] | lower | shortening was suppressed | smaller | shortening was suppressed | smaller | smaller | smaller | all 8 mice survived |  |  |
| O=C(CC(C(=O)O)c1c[nH]c2ccccc12)c1ccc(F)cc1F (centres unmarked) [Present Compound #1, 4-(2,4-difluorophenyl)-2-(1H-indole-3-yl)-4-oxo-butanoic acid] |  |  |  | shortening was suppressed | smaller | smaller | smaller |  | smaller | smaller |
